{
  "source": "ChEMBL document CHEMBL3797079",
  "about": "“Synergistic reduction of HIV-1 infectivity by 5-azacytidine and inhibitors of ribonucleotide reductase” (Bioorg Med Chem, 2016)",
  "key": {"U373-MAGI [1]": {"system": "U373-MAGI", "assay": "Effect on dRGU-TP level in human U373-MAGI cells at 50 uM preincubated for 2 hrs followed by 5-aza-dC addition measured after 4 hrs by LC-MS/MS analysis", "assay_type": "functional, cell-based"}, "U373-MAGI [2]": {"system": "U373-MAGI", "assay": "Effect on dRGU-TP level in human U373-MAGI cells at 200 uM preincubated for 2 hrs followed by 5-aza-dC addition measured after 4 hrs by LC-MS/MS analysis", "assay_type": "functional, cell-based"}, "U373-MAGI [3]": {"system": "U373-MAGI", "assay": "Reduction in dCTP level in human U373-MAGI cells at 50 uM preincubated for 2 hrs followed by 5-aza-dC addition measured after 4 hrs by LC-MS/MS analysis relative to 5-aza-dC", "assay_type": "functional, cell-based"}, "[4]": {"system": "Human immunodeficiency virus 1", "assay": "Antiviral activity against VSV-G pseudotyped HIV-1 NL4-3 infected in human U373-MAGI cells assessed as increase in mutation frequency at 50 uM incubated for 4 hrs prior to infection measured at 72 hrs post infection by illumina sequencing method", "assay_type": "functional"}, "U373-MAGI [5]": {"system": "U373-MAGI", "assay": "Reduction in dGTP level in human U373-MAGI cells at 200 uM after 6 hrs by LC-MS/MS analysis", "assay_type": "functional, cell-based"}, "U373-MAGI [6]": {"system": "U373-MAGI", "assay": "Reduction in dCTP level in human U373-MAGI cells at 200 uM after 6 hrs by LC-MS/MS analysis", "assay_type": "functional, cell-based"}, "U373-MAGI [7]": {"system": "U373-MAGI", "assay": "Reduction in dATP level in human U373-MAGI cells at 200 uM after 6 hrs by LC-MS/MS analysis", "assay_type": "functional, cell-based"}, "U373-MAGI [8]": {"system": "U373-MAGI", "assay": "Reduction in dCTP level in human U373-MAGI cells at 50 uM preincubated for 2 hrs followed by 5-aza-C addition measured after 4 hrs by LC-MS/MS analysis", "assay_type": "functional, cell-based"}, "U373-MAGI [9]": {"system": "U373-MAGI", "assay": "Reduction in dRGU-TP level in human U373-MAGI cells at 50 uM preincubated for 2 hrs followed by 5-aza-C addition measured after 4 hrs by LC-MS/MS analysis", "assay_type": "functional, cell-based"}, "U373-MAGI [10]": {"system": "U373-MAGI", "assay": "Reduction in dRGU-TP level in human U373-MAGI cells at 200 uM preincubated for 2 hrs followed by 5-aza-C addition measured after 4 hrs by LC-MS/MS analysis", "assay_type": "functional, cell-based"}, "U373-MAGI [11]": {"system": "U373-MAGI", "assay": "Increase in 5-aza-dCTP/dCTP ratio in human U373-MAGI cells at 50 uM preincubated for 2 hrs followed by 5-aza-dC addition measured after 4 hrs by LC-MS/MS analysis relative to 5-aza-dC", "assay_type": "functional, cell-based"}, "U373-MAGI [12]": {"system": "U373-MAGI", "assay": "Increase in 5-aza-dCTP/dCTP ratio in human U373-MAGI cells at 200 uM preincubated for 2 hrs followed by 5-aza-dC addition measured after 4 hrs by LC-MS/MS analysis relative to 5-aza-dC", "assay_type": "functional, cell-based"}, "[13]": {"system": "Human immunodeficiency virus 1", "assay": "Potentiation of 5-Aza-C-induced antiviral activity against VSV-G pseudotyped HIV-1 NL4-3 infected in human U373-MAGI cells assessed as reduction in gag level at 50 uM after 2 to 72 hrs by qPCR method", "assay_type": "functional, organism-based"}, "[14]": {"system": "Human immunodeficiency virus 1", "assay": "Antiviral activity against VSV-G pseudotyped HIV-1 NL4-3 infected in human U373-MAGI cells assessed as Pol mutation at 50 uM incubated for 4 hrs prior to infection measured at 72 hrs post infection by illumina sequencing method (reference value: 18.5%)", "assay_type": "functional"}, "[15]": {"system": "Human immunodeficiency virus 1", "assay": "Antiviral activity against VSV-G pseudotyped HIV-1 NL4-3 infected in human U373-MAGI cells assessed as increase in frequency of C to A transversion at 50 uM incubated for 4 hrs prior to infection measured at 72 hrs post infection by illumina sequencing method relative to control", "assay_type": "functional"}, "[16]": {"system": "Human immunodeficiency virus 1", "assay": "Antiviral activity against VSV-G pseudotyped HIV-1 NL4-3 infected in human U373-MAGI cells assessed as increase in frequency of A to T transversion at 50 uM incubated for 4 hrs prior to infection measured at 72 hrs post infection by illumina sequencing method relative to control", "assay_type": "functional"}, "[17]": {"system": "Human immunodeficiency virus 1", "assay": "Antiviral activity against VSV-G pseudotyped HIV-1 NL4-3 infected in human U373-MAGI cells assessed as increase in frequency of T to A transversion at 50 uM incubated for 4 hrs prior to infection measured at 72 hrs post infection by illumina sequencing method relative to control", "assay_type": "functional"}, "[18]": {"system": "Human immunodeficiency virus 1", "assay": "Antiviral activity against VSV-G pseudotyped HIV-1 NL4-3 infected in human U373-MAGI cells assessed as increase in frequency of G to C transversion at 50 uM incubated for 4 hrs prior to infection measured at 72 hrs post infection by illumina sequencing method relative to control", "assay_type": "functional"}, "[19]": {"system": "Human immunodeficiency virus 1", "assay": "(§1) Potentiation of 5-Aza-dC-induced antiviral activity against VSV-G pseudotyped HIV-1 NL4-3 infected in human U373-MAGI cells assessed as Gag mutation at 50 uM incubated for 4 hrs preinfection followed by 5-Aza-C addition for 2 hrs preinfection and subsequent viral infection measured at 72 hrs post infection by illumina sequencing method (reference value: 18.4%)", "assay_type": "functional"}, "[20]": {"system": "Human immunodeficiency virus 1", "assay": "as §1, with “Pol” for “Gag”, “18.5%)” for “18.4%)”", "assay_type": "functional"}, "[21]": {"system": "Human immunodeficiency virus 1", "assay": "as §1, with “Nef” for “Gag”, “22.6%)” for “18.4%)”", "assay_type": "functional"}, "[22]": {"system": "Human immunodeficiency virus 1", "assay": "Antiviral activity against VSV-G pseudotyped HIV-1 NL4-3 infected in human U373-MAGI cells assessed as reduction in viral infectivity at 50 uM incubated for 4 hrs prior to viral infection measured at 72 hrs post infection by flow cytometric analysis", "assay_type": "functional, organism-based"}, "[23]": {"assay": "Cytotoxicity against human U373-MAGI cells at 50 uM measured at 72 hrs by Celltiter-Glo luminescent cell viability assay", "assay_type": "cell-based"}, "[24]": {"system": "Human immunodeficiency virus 1", "assay": "Antiviral activity against VSV-G pseudotyped HIV-1 NL4-3 infected in human U373-MAGI cells assessed as reduction in viral infectivity preincubated for 2 to 8 hrs followed by viral infection measured at 72 hrs post infection by flow cytometric analysis", "assay_type": "functional, organism-based"}, "[25]": {"system": "Human immunodeficiency virus 1", "assay": "Potentiation of 5-Aza-C-induced antiviral activity against VSV-G pseudotyped HIV-1 NL4-3 infected in human U373-MAGI cells assessed as reduction in U5-gag level at 50 uM after 2 to 72 hrs by qPCR method", "assay_type": "functional, organism-based"}, "[26]": {"system": "Human immunodeficiency virus 1", "assay": "Antiviral activity against VSV-G pseudotyped HIV-1 NL4-3 infected in human U373-MAGI cells assessed as reduction in gag level at 50 uM measured at 6 hrs post infection by qPCR method", "assay_type": "functional, organism-based"}, "[27]": {"system": "Human immunodeficiency virus 1", "assay": "Potentiation of 5-Aza-C-induced antiviral activity against VSV-G pseudotyped HIV-1 NL4-3 infected in human U373-MAGI cells assessed as reduction in viral infectivity at 50 uM preincubated for 2 to 8 hrs followed by 5-Aza-C addition for 2 hrs and subsequent viral infection measured at 72 hrs post infection by flow cytometric analysis", "assay_type": "functional, organism-based"}, "U373-MAGI [28]": {"system": "U373-MAGI", "assay": "Reduction in dTTP level in human U373-MAGI cells at 50 uM after 6 hrs by LC-MS/MS analysis", "assay_type": "functional, cell-based"}, "U373-MAGI [29]": {"system": "U373-MAGI", "assay": "Reduction in dTTP level in human U373-MAGI cells at 200 uM after 6 hrs by LC-MS/MS analysis", "assay_type": "functional, cell-based"}, "U373-MAGI [30]": {"system": "U373-MAGI", "assay": "Reduction in dGTP level in human U373-MAGI cells at 50 uM after 6 hrs by LC-MS/MS analysis", "assay_type": "functional, cell-based"}, "U373-MAGI [31]": {"system": "U373-MAGI", "assay": "Reduction in 5-aza-dCTP level in human U373-MAGI cells at 200 uM preincubated for 2 hrs followed by 5-aza-C addition measured after 4 hrs by LC-MS/MS analysis", "assay_type": "functional, cell-based"}},
  "note": "The source made the active and inactive calls. The rule behind the calls is not given here.",
  "data": [
    {"smiles": "Oc1ccc(/C=C/c2cc(O)cc(O)c2)cc1", "note": "[RESVERATROL]", "values": [
      {"measurement": "Activity", "setting": "U373-MAGI [1]", "value": "inactive"},
      {"measurement": "Activity", "setting": "U373-MAGI [2]", "value": "inactive"},
      {"measurement": "Activity", "setting": "U373-MAGI [3]", "value": "Active"},
      {"measurement": "fold change (FC)", "setting": "[4]", "value": 1.5},
      {"measurement": "Activity", "setting": "U373-MAGI [5]", "value": "Active"},
      {"measurement": "Activity", "setting": "U373-MAGI [6]", "value": "Active"},
      {"measurement": "Activity", "setting": "U373-MAGI [7]", "value": "Active"},
      {"measurement": "Activity", "setting": "U373-MAGI [8]", "value": "Active"},
      {"measurement": "Activity", "setting": "U373-MAGI [9]", "value": "inactive"},
      {"measurement": "Activity", "setting": "U373-MAGI [10]", "value": "Active"},
      {"measurement": "Activity", "setting": "U373-MAGI [11]", "value": "Active"},
      {"measurement": "Activity", "setting": "U373-MAGI [12]", "value": "Active"},
      {"measurement": "Activity", "setting": "[13]", "value": "Active"},
      {"measurement": "Activity", "setting": "[14]", "value": 19, "unit": "%"},
      {"measurement": "fold change (FC)", "setting": "[15]", "value": 1.3},
      {"measurement": "fold change (FC)", "setting": "[16]", "value": 1.8},
      {"measurement": "fold change (FC)", "setting": "[17]", "value": 1.8},
      {"measurement": "fold change (FC)", "setting": "[18]", "value": 2},
      {"measurement": "Activity", "setting": "[19]", "value": 15.7, "unit": "%"},
      {"measurement": "Activity", "setting": "[20]", "value": 18.9, "unit": "%"},
      {"measurement": "Activity", "setting": "[21]", "value": 20.3, "unit": "%"},
      {"measurement": "Activity", "setting": "[22]", "value": "Active"},
      {"measurement": "Activity", "setting": "[23]", "value": "Non-toxic"},
      {"measurement": "Activity", "setting": "[24]", "value": "Active"},
      {"measurement": "Activity", "setting": "[25]", "value": "Active"},
      {"measurement": "Activity", "setting": "[26]", "value": "Active"},
      {"measurement": "Activity", "setting": "[27]", "value": "Active"},
      {"measurement": "Activity", "setting": "U373-MAGI [28]", "value": "inactive"},
      {"measurement": "Activity", "setting": "U373-MAGI [29]", "value": "Active"},
      {"measurement": "Activity", "setting": "U373-MAGI [30]", "value": "inactive"},
      {"measurement": "Activity", "setting": "U373-MAGI [31]", "value": "Active"}
    ]}
  ]
}
